Assay [1] concerns the target full-length RORγt in Jurkat cells (Homo sapiens (Human), UniProt P51449). Nature of the assay: RORγt 5×RORE Assay in Jurkat Cells (Assay 2). It counts as cell-based. Conditions: RORγt 5×RORE Nanoluc reporter.
Assay [2] addresses recombinant RORγ Ligand Binding Domain (LBD) protein (Homo sapiens (Human), UniProt P51449). Nature of the assay: Radio-Ligand RORγ Binding Assay (Assay 1). To be noted: radio-ligand 25-hydroxy [26,27-3H]-cholesterol competition. The procedure, abridged:
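Cell-free competition with 25-hydroxy[26,27-³H]-cholesterol for the ligand site of 6×His-GST-tagged RORγ LBD; SPA read-out with poly-Lys YSi beads after shaking and incubation at rt. IC50 taken as the inflection point of a four-parameter fit of percent inhibition vs concentration.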

The structures appear in SMILES notation.

Sequence of recombinant RORγ Ligand Binding Domain (LBD) protein (P51449 269-508): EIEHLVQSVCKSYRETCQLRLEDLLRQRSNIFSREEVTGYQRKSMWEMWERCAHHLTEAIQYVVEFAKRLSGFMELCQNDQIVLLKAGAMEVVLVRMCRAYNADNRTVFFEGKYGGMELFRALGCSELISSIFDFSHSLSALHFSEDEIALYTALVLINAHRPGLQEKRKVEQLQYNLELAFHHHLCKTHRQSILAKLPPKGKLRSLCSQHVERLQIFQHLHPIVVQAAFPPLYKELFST
Sequence of full-length RORγt in Jurkat cells (P51449 other isoform, or with tags, fused parts or gaps): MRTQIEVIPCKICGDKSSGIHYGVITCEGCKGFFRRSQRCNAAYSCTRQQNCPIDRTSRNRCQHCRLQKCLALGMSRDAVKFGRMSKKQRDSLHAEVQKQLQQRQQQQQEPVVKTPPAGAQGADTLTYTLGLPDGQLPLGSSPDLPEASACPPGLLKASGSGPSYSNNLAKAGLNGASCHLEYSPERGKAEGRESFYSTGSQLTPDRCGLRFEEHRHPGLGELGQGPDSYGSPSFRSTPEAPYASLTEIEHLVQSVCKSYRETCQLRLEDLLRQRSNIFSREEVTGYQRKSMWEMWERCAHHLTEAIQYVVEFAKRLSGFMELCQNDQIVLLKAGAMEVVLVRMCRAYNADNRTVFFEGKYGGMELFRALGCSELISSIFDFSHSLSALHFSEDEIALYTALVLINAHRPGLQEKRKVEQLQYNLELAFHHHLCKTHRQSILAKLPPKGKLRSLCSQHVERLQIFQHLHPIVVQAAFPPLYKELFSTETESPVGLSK

For orientation: IC50 means the point on the concentration scale where inhibition reaches its midpoint. Lower therefore signals inhibition by little substance. A word on the Ki: it is a dissociation constant, usually derived from enzyme kinetics or from competition with a known ligand. `CCn1c(C[C@H]2CC[C@H](C(F)(F)F)CC2)cc2cc(C(=O)N[C@@H](CO)c3ccc(S(=O)(=O)CC)cc3)ccc21` [IN-16.1, 1-ethyl-N-((R)-1-(4-(ethylsulfonyl)phenyl)-2-hydroxyethyl)-2-(((1r,4R)-4-(trifluoromethyl)cyclohexyl)methyl)-1H-indole-5-carboxamide]: in assay [1], the IC50 is less than 100 nM. In assay [2], the inhibition constant Ki was less than 100 nM.

In the case of `CCn1c(C[C@H]2CC[C@H](C(F)(F)F)CC2)cc2cc(C(=O)NCc3ccc(S(=O)(=O)CC)cc3)ccc21` [IN-17.1, 1-ethyl-N-(4-(ethylsulfonyl)benzyl)-2-(((1r,4r)-4-(trifluoromethyl)cyclohexyl)methyl)-1H-indole-5-carboxamide], in assay [1], the 50% inhibitory concentration (IC50) is less than 100 nM. Moreover, the Ki in assay [2] was less than 100 nM.

In turn, `CCS(=O)(=O)c1ccc(CNC(=O)c2ccc3c(c2)cc(Cc2ccc(C(F)(F)F)cc2)n3C2CC2)cc1` [IN-18, 1-cyclopropyl-N-(4-(ethylsulfonyl)benzyl)-2-(4-(trifluoromethyl)benzyl)-1H-indole-5-carboxamide] registered an IC50 in assay [1] of less than 100 nM. Moreover, in assay [2], the Ki was less than 100 nM.

In assay [1], `CCS(=O)(=O)c1ccc([C@H](CO)NC(=O)c2ccc3c(c2)cc(Cc2ccc(C(F)(F)F)cc2)n3C2CC2)nc1` [IN-19, (R)-1-cyclopropyl-N-(1-(5-(ethylsulfonyl)pyridin-2-yl)-2-hydroxyethyl)-2-(4-(trifluoromethyl)benzyl)-1H-indole-5-carboxamide] came in with a half-inhibitory concentration (IC50) of less than 100 nM. In addition, the Ki in assay [2] is less than 100 nM.

On to `CCn1c(Cc2ccc(C#N)cc2)cc2cc(C(=O)N[C@@H](CO)c3ccc(S(=O)(=O)CC)cn3)ccc21` [IN-21, (R)-2-(4-cyanobenzyl)-1-ethyl-N-(1-(5-(ethylsulfonyl)pyridin-2-yl)-2-hydroxyethyl)-1H-indole-5-carboxamide], for which the 50% inhibitory concentration (IC50) in assay [1] was in the range of 100 to 1000 nM. The Ki in assay [2] was less than 100 nM.

In assay [1], `CCn1c(C(=O)c2ccc(C(F)(F)F)cn2)cc2cc(C(=O)N[C@@H](CO)c3ccc(S(=O)(=O)CC)cc3)ccc21` [IN-22, (R)-1-ethyl-N-(1-(4-(ethylsulfonyl)phenyl)-2-hydroxyethyl)-2-(5-(trifluoromethyl)picolinoyl)-1H-indole-5-carboxamide] yielded a half-inhibitory concentration (IC50) of less than 100 nM. Moreover, the Ki in assay [2] is less than 100 nM.

The values are drawn from US10301261B2, “Substituted indoles as modulators of ROR-gamma” (Vitae Pharmaceuticals, LLC, priority 2015, dated 2019).
